Structures can show the parent of a compound that is named as a salt.
Test system: HCT116
Conditions: 72 h
In short: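 Each well of the 1536-well plates received 250 HCT116 cells, which attached over 5 h. Luminescence was measured with CellTiter-Glo, scaled with vehicle as 0% and positive control as -100%, and pattern-corrected. A four-parameter Hill fit yielded IC50 and maximal efficacy.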

IC50 cell viability (ICRF193 0 nM) [µM] | IC50 cell viability (ICRF193 200 nM) [µM] | SMILES
> 45.8 | > 45.8 | O=C(O)CN(CCN(CC(=O)O)CC(=O)O)CCN(CC(=O)O)CC(=O)O [Pentetic acid]
> 45.8 | > 45.8 | CN[C@@H]1[C@@H](O)[C@@H](O[C@@H]2[C@H](O)[C@H](O[C@H]3OC(CN)=CC[C@H]3N)[C@@H](N)C[C@H]2N)OC[C@]1(C)O [Pentisomicin]
> 45.8 | > 45.8 | C[N+]1(CCCCC[N+]2(C)CCCC2)CCCC1 [Pentolinium bitartrate]
> 45.8 | > 45.8 | OC[C@H]1O[C@@H](n2cnc3c2N=CNC[C@H]3O)C[C@@H]1O [Pentostatin]
> 45.8 | > 45.8 | Cc1c(N)nc([C@H](CC(N)=O)NC[C@H](N)C(N)=O)nc1C(=O)N[C@H](C(=O)N[C@H](C)[C@@H](O)[C@H](C)C(=O)N[C@H](C(=O)NCCc1nc(-c2nc(C(=O)NCCCN[C@@H](C)c3ccccc3)cs2)cs1)[C@@H](C)O)[C@@H](O[C@@H]1O[C@@H](CO)[C@@H](O)[C@H](O)[C@@H]1O[C@H]1O[C@H](CO)[C@@H](O)[C@H](OC(N)=O)[C@@H]1O)c1c[nH]cn1 [Peplomycin sulfate]
> 45.8 | > 45.8 | CCC(CC)[C@H](NC(C)=O)[C@@H]1[C@H](O)[C@@H](C(=O)O)C[C@H]1NC(=N)N [Peramivir]
> 45.8 | > 45.8 | FC(F)(F)C(F)(F)C(F)(F)C(F)(F)C(F)(F)F [Perflenapent]
> 45.8 | > 45.8 | FC(F)(F)C(F)(F)C(F)(F)C(F)(F)C(F)(F)C(F)(F)F [Perflexane]
> 45.8 | > 45.8 | CCC[C@H](N[C@@H](C)C(=O)N1[C@H](C(=O)O)C[C@@H]2CCCC[C@@H]21)C(=O)OCC [Perindopril]
> 45.8 | > 45.8 | OC(CN1CCCCC1)c1cc(-c2ccccc2)on1 (centres undefined) [Perisoxal citrate]
> 45.8 | > 45.8 | CN1CCN(C2=Nc3ccccc3Cc3ccccc32)CC1 [Perlapine]
> 45.8 | > 45.8 | CCOc1ccc(/N=C(\C)Nc2ccc(OCC)cc2)cc1 [Phenacaine hydrochloride]
> 45.8 | > 45.8 | NC(=O)NC(=O)Cc1ccccc1 [Phenacemide]
> 45.8 | > 45.8 | CCOc1ccc(NC(C)=O)cc1 [Phenacetin]
> 45.8 | > 45.8 | Nc1ccc(/N=N/c2ccccc2)c(N)n1 [Phenazopyridine hydrochloride]
> 45.8 | > 45.8 | NNCCc1ccccc1 [Phenelzine]
> 45.8 | > 45.8 | CC(Oc1ccccc1)C(=O)N[C@@H]1C(=O)N2[C@@H]1SC(C)(C)[C@@H]2C(=O)O (some centres undefined) [Phenethicillin potassium salt]
> 45.8 | > 45.8 | O=C1c2ccccc2C(=O)C1c1ccccc1 [Phenindione]
> 45.8 | > 45.8 | CN(C)CCC(c1ccccc1)c1ccccn1 (centres undefined) [Pheniramine maleate]
> 45.8 | > 45.8 | O=S1(=O)OC(c2ccc(O)cc2)(c2ccc(O)cc2)c2ccccc21 [Phenol red]
> 45.8 | > 45.8 | Oc1ccccc1 [Phenol]
> 45.8 | > 45.8 | O=C1OC(c2ccc(O)cc2)(c2ccc(O)cc2)c2ccccc21 [Phenolphthalein]
> 45.8 | > 45.8 | O=C(O)c1ccccc1C(c1ccc(O)cc1)c1ccc(O)cc1 [Phenolphthalin]
> 45.8 | > 45.8 | CC(COc1ccccc1)N(CCCl)Cc1ccccc1 (centres undefined) [Phenoxybenzamine hydrochloride]
> 45.8 | > 45.8 | CCC(c1ccccc1)c1c(O)c2ccccc2oc1=O (centres undefined) [Phenprocoumon]
> 45.8 | > 45.8 | CN1C(=O)CC(c2ccccc2)C1=O (centres undefined) [Phensuximide]

IC50 cell viability (ICRF193 0 nM) [µM] | IC50 cell viability (ICRF193 200 nM) [µM] | SMILES
> 45.8 | > 45.8 | Cc1ccc(N(CC2=NCCN2)c2cccc(O)c2)cc1 [Phentolamine mesilate]
> 45.8 | > 45.8 | Nc1ccc(C(=O)Oc2ccccc2)c(O)c1 [Phenyl 4-aminosalicylate]
> 45.8 | > 45.8 | O=C(CCCCCCCCC#CI)Oc1ccccc1 [Phenyl 11-iodo-10-undecynoate]
> 45.8 | > 45.8 | O=C(Oc1ccccc1)c1ccccc1O [Phenyl salicylate]
> 45.8 | > 45.8 | CC(=O)N(CC(=O)N(C)C)c1ccccc1 [Phenylacetylglycine dimethylamide]
> 45.8 | > 45.8 | CNC[C@H](O)c1cccc(O)c1 [Phenylephrine hydrochloride]
> 45.8 | > 45.8 | CN(C)CCOc1ccccc1Cc1ccccc1 [Phenyltoloxamine citrate]
> 45.8 | > 45.8 | O=C(CCc1ccc(O)cc1)c1c(O)cc(O)cc1O[C@@H]1O[C@H](CO)[C@@H](O)[C@H](O)[C@H]1O [Phlorizin]
> 45.8 | > 45.8 | C#CC(C)(CC)OC(=O)c1ccccc1C(=O)O (centres undefined) [Phthalofyne]
> 45.8 | > 45.8 | CCCCCCCCCCCCCCCC(=O)O[C@@H]1CC(C)=C(/C=C/C(C)=C/C=C/C(C)=C/C=C/C=C(C)/C=C/C=C(C)/C=C/C2=C(C)C[C@@H](OC(=O)CCCCCCCCCCCCCCC)CC2(C)C)C(C)(C)C1 [Physalien]
> 45.8 | > 45.8 | O=P(O)(O)O[C@H]1[C@H](OP(=O)(O)O)[C@@H](OP(=O)(O)O)[C@H](OP(=O)(O)O)[C@@H](OP(=O)(O)O)[C@H]1OP(=O)(O)O [Phytic acid]
> 45.8 | > 45.8 | CC1=C(C/C=C(\C)CCC[C@H](C)CCC[C@H](C)CCCC(C)C)C(=O)c2ccccc2C1=O [Phytonadione]
> 45.8 | > 45.8 | Nc1c(NC/C=C\COc2cc(CN3CCCCC3)ccn2)c(=O)c1=O [Pibutidine]
> 45.8 | > 45.8 | O=C(O)c1ccccn1 [Picolinic acid]
> 45.8 | > 45.8 | O=S(=O)(O)Oc1ccc(C(c2ccc(OS(=O)(=O)O)cc2)c2ccccn2)cc1 [Picosulfate sodium]
> 45.8 | > 45.8 | CC[C@@H]1C(=O)OC[C@@H]1Cc1cncn1C [Pilocarpine]
> 45.8 | > 45.8 | Cc1cccc(C)c1NC(=O)CC12CCCN1CCC2 [Pilsicainide]
> 45.8 | > 45.8 | C[C@@H]1C/C=C/C=C/C=C/C=C/[C@H](O[C@@H]2O[C@H](C)[C@@H](O)[C@H](N)[C@@H]2O)C[C@@H]2O[C@](O)(C[C@@H](O)C[C@H]3O[C@@H]3/C=C/C(=O)O1)C[C@H](O)[C@H]2C(=O)O [Pimaricin]
> 45.8 | > 45.8 | COc1ccc(-c2nc3cc(C4=NNC(=O)CC4C)ccc3[nH]2)cc1 (centres undefined) [Pimobendan]
> 45.8 | > 45.8 | CC(C)NCC(O)COc1cccc2[nH]ccc12 (centres undefined) [Pindolol]
> 45.8 | > 45.8 | CCc1ccc(CCOc2ccc(CC3SC(=O)NC3=O)cc2)nc1 (centres undefined) [Pioglitazone hydrochloride]
> 45.8 | > 45.8 | NC(=O)C1(N2CCCCC2)CCN(CCCC(=O)c2ccc(F)cc2)CC1 [Pipamperone dihydrochloride]
> 45.8 | > 45.8 | CC(=O)O[C@H]1C[C@@H]2CC[C@@H]3[C@H](CC[C@@]4(C)[C@H]3C[C@H](N3CC[N+](C)(C)CC3)[C@@H]4OC(C)=O)[C@@]2(C)C[C@@H]1N1CC[N+](C)(C)CC1 [Pipecuronium bromide]
> 45.8 | > 45.8 | CCn1cc(C(=O)O)c(=O)c2cnc(N3CCNCC3)nc21 [Pipemidic acid]
> 45.8 | > 45.8 | CCN1CCN(C(=O)N[C@@H](C(=O)N[C@@H]2C(=O)N3[C@@H]2SC(C)(C)[C@@H]3C(=O)O)c2ccccc2)C(=O)C1=O [Piperacillin sodium salt]

SMILES | IC50 cell viability (ICRF193 0 nM) [µM] | IC50 cell viability (ICRF193 200 nM) [µM]
CCCCC[C@@H](O)[C@H]1C(=O)O[C@H](C)[C@@H](O)/C=C/C=C/C=C/C=C/C=C(\C)[C@@H](O)[C@H](O)[C@H](O)C[C@H](O)C[C@H](O)C[C@H](O)C[C@H](O)C[C@@H]1O [Pentamycin] | > 45.8 | > 45.8
CC(=O)CCCCn1c(=O)c2c(ncn2C)n(C)c1=O [Pentoxifylline] | > 45.8 | > 45.8
CCCN1C[C@H](CSC)C[C@@H]2c3cccc4[nH]cc(c34)C[C@H]21 [Pergolide methanesulfonate] | > 45.8 | > 45.8
c1ccc2c(c1)Nc1ccccc1S2 [Phenothiazine] | > 45.8 | > 45.8
CC(C)=CC1C(C(=O)OCc2cccc(Oc3ccccc3)c2)C1(C)C (centres undefined) [Phenothrin] | > 45.8 | > 45.8
O=C(O)COc1ccccc1 [Phenoxyacetic acid] | > 45.8 | > 45.8
NC(=O)OCCCc1ccccc1 [Phenprobamate] | > 45.8 | > 45.8
O=C(O)Cc1ccccc1 [Phenylacetic acid] | > 45.8 | > 45.8
CC(N)C(O)c1ccccc1 (centres undefined) [Phenylpropanolamine hydrochloride] | > 45.8 | > 45.8
COP(=S)(OC)SCN1C(=O)c2ccccc2C1=O [Phosmet] | > 45.8 | > 45.8
CNC(=O)Oc1ccc2c(c1)[C@]1(C)CCN(C)[C@@H]1N2C [Physostigmine] | > 45.8 | > 45.8

Source: the supplement of paper PMC12137928
